Measurements taken from patent publication US7728028B2, “Substituted imidazoline compounds” (Gruenenthal GmbH, priority 2005, dated 2010).

Test system: not given
Assay: not given
Conditions: not given
With `CN(C)C(c1cccc(F)c1)C1CCC(C=O)CC1` (stereo not drawn) the melting point was 40 to 43 °C.

Biological target: T1, human μ-opiate receptor (Homo sapiens, UniProt P35372)
T1 construct: purchased PerkinElmer Life Sciences, Zaventem, Belgium RB-HOM; host or cells: CHO-K1 cells (recombinant expression; membrane preparation)
T1 sequence (P35372 whole entry): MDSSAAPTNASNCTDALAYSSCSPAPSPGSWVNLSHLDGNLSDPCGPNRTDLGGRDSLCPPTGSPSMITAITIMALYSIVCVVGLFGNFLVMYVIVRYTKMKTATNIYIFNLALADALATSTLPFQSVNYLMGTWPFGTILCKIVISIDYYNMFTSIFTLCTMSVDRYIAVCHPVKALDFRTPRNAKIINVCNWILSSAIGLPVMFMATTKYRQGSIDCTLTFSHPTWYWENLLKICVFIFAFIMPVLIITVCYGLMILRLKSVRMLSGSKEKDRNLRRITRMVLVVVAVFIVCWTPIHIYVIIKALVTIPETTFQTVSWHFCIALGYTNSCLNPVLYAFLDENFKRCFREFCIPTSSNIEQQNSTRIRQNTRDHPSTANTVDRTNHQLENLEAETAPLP
Assay: Affinity for the human μ-opiate receptor ([3H]-naloxone displacement, SPA)
Conditions: Table 2, Examples 11-161; test substance 1 μmole/l; inhibition of specific [3H]-naloxone binding; CHO-K1 membranes; read-out: μ-Opioid receptor, % inhibition [1 μM]
Procedure, shortened: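 CHO-K1 membranes expressing the receptor, incubated 90 min at room temperature with 1 nmol/l [3H]-naloxone and WGA-SPA beads in 50 mmol/l Tris-HCl with 0.06% BSA. Non-specific binding defined with 100 μmol/l naloxone. Value is % inhibition of specific binding at 1 μmol/l test substance.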
In the case of `CCCCN1C=NC(CC(C)C)(C(=O)OC)C1C1CCC(C(c2cccc(F)c2)N(C)C)CC1` (stereo not drawn) [Example 29, 1-butyl-5-{4-[dimethylamino-(3-fluorophenyl)-methyl]-cyclohexyl}-4-isobutyl-4,5-dihydro-1H-imidazole-4-carboxylic acid methyl ester], the inhibition at 1 µM is reported as 89%. `COC(=O)C1(C)N=CN(Cc2ccccc2)C1CC1CCC(C(c2ccc(F)cc2)N(C)C)CC1` (stereo not drawn) [Example 143, 1-benzyl-5-{4-[dimethylamino-(4-fluorophenyl)-methyl]-cyclohexylmethyl}-4-methyl-4,5-dihydro-1H-imidazole-4-carboxylic acid methyl ester] gave an inhibition at 1 µM of 100%. In the case of `CCCC1(C(=O)OC)N=CN(C2CCCCC2)C1CC1CCC(C(c2cccc(F)c2)N(C)C)CC1` (stereo not drawn) [Example 102, 1-cyclohexyl-5-{4-[dimethylamino-(3-fluorophenyl)-methyl]-cyclohexylmethyl}-4-propyl-4,5-dihydro-1H-imidazole-4-carboxylic acid methyl ester], the inhibition at 1 µM is reported as 91%. `CCCC1(C(=O)OC)N=CN(Cc2ccccc2)C1CC1CCC(C(CCc2ccccc2)N(C)C)CC1` (stereo not drawn) [Example 144, 1-benzyl-5-[4-(1-dimethylamino-3-phenylpropyl)-cyclohexylmethyl]-4-propyl-4,5-dihydro-1H-imidazole-4-carboxylic acid methyl ester] showed an inhibition at 1 µM of 90%. `COC(=O)C1(C)N=CN(C2CCCCC2)C1CC1CCC(C(c2cccc(F)c2)N(C)C)CC1` (stereo not drawn) [Example 104, 1-cyclohexyl-5-{4-[dimethylamino-(3-fluorophenyl)-methyl]-cyclohexylmethyl}-4-methyl-4,5-dihydro-1H-imidazole-4-carboxylic acid methyl ester] gave an inhibition at 1 µM of 93%. Work on `CCCCN1C=NC(CSCc2ccccc2)(C(=O)OC)C1CC1CCC(C(c2cccc(F)c2)N(C)C)CC1` (stereo not drawn) [Example 75, 4-benzylsulfanylmethyl-1-butyl-5-{4-[dimethylamino-(3-fluorophenyl)-methyl]-cyclohexylmethyl}-4,5-dihydro-1H-imidazole-4-carboxylic acid methyl ester] yielded an inhibition at 1 µM of 98%. In the case of `COC(=O)C1(CSCc2ccccc2)N=CN(C2CCCCC2)C1CC1CCC(C(c2cccc(F)c2)N(C)C)CC1` (stereo not drawn) [Example 150, 4-benzylsulfanylmethyl-1-cyclohexyl-5-{4-[dimethylamino-(3-fluorophenyl)-methyl]-cyclohexylmethyl}-4,5-dihydro-1H-imidazole-4-carboxylic acid methyl ester], the inhibition at 1 µM is reported as 98%. With `CCCCN1C=NC(CCC(=O)OC)(C(=O)OC)C1CC1CCC(C(CCc2ccccc2)N(C)C)CC1` (stereo not drawn) [Example 78, 1-butyl-5-[4-(1-dimethylamino-3-phenylpropyl)-cyclohexylmethyl]-4-(2-methoxycarbonylethyl)-4,5-dihydro-1H-imidazole-4-carboxylic acid methyl ester] the inhibition at 1 µM was 67%. `CCCCN1C=NC(CSC)(C(=O)OC)C1CC1CCC(C(c2ccc(F)cc2)N(C)C)CC1` (stereo not drawn) [Example 77, 1-butyl-5-{4-[dimethylamino-(4-fluorophenyl)-methyl]-cyclohexylmethyl}-4-methylsulfanylmethyl-4,5-dihydro-1H-imidazole-4-carboxylic acid methyl ester] gave an inhibition at 1 µM of 88%. For `COC(=O)C1(CSCc2ccccc2)N=CN(Cc2ccccc2)C1CC1CCC(C(c2ccc(Cl)cc2)N(C)C)CC1` (stereo not drawn) [Example 101, 1-benzyl-4-benzylsulfanylmethyl-5-{4-[(4-chlorophenyl)-dimethylaminomethyl]-cyclohexylmethyl}-4,5-dihydro-1H-imidazole-4-carboxylic acid methyl ester], the inhibition at 1 µM was 96%. `COC(=O)CCC1(C(=O)OC)N=CN(CCc2ccccc2)C1CC1CCC(C(c2cccc(F)c2)N(C)C)CC1` (stereo not drawn) [Example 80, 5-{4-[dimethylamino-(3-fluorophenyl)-methyl]-cyclohexylmethyl}-4-(2-methoxycarbonylethyl)-1-phenethyl-4,5-dihydro-1H-imidazole-4-carboxylic acid methyl ester] gave an inhibition at 1 µM of 90%.
